Patent publication US10034886B2, “GLP-1 receptor modulators” (Celgene International II SÀRL, priority 2014, dated 2018)

molecular target: T1, GLP-1R (Homo sapiens, UniProt P43220); assay: EC20 GLP-1(9-36) PAM cAMP assay: dose response of compound in the presence of fixed concentration of GLP-1(9-36); format: cell-based; conditions: GLP-1R CRE-bla CHO-K1 cells, compound dose response with fixed concentration of GLP-1(9-36), read-out: EC20 GLP-1(9-36) PAM EC50
T1 construct: host or cells: GLP-1R CRE-bla CHO-K1 cells
T1 sequence (P43220 24-463): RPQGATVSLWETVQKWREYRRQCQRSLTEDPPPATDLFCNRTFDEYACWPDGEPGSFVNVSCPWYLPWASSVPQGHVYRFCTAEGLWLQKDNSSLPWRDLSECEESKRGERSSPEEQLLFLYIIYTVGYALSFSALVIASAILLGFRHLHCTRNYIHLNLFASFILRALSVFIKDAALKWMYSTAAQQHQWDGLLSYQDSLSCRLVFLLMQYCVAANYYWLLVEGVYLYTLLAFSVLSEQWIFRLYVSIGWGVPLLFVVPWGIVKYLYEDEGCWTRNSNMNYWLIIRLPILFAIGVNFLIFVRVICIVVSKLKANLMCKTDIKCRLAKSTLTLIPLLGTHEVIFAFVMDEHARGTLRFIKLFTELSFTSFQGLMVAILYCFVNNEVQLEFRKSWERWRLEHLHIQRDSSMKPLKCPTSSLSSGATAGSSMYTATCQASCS
T1 sequence (P01275 100-127 partner limits assumed): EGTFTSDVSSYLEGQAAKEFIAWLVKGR
How it was run: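 GLP-1R CRE-bla CHO-K1 cells treated 30 min at 37 °C with 12-point compound dose response plus fixed EC20 GLP-1(9-36), with IBMX, in HBSS/HEPES/0.1% BSA pH 7.4. Total cAMP measured by luminescent detection against standard curve; EC50 and Emax from non-linear regression.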

Row | Structure (SMILES) | EC50 [nM]
1 | Cc1ccc(-c2ccc(-c3cnc(-c4ccc(C[C@H](NC(=O)c5ccc(C(C)(C)C)s5)C(=O)N[C@H](C)C(=O)O)cc4)nc3)s2)cc1 [Compound 1302] | 5000 to 10000
2 | C[C@@H](NC(=O)[C@H](Cc1ccc(-c2ncc(-c3ccc4c(c3)C(C)(C)c3ccccc3-4)cn2)cc1)NC(=O)c1ccc(C(C)(C)C)s1)C(=O)O [Compound 1304] | 800 to 2500
3 | C[C@@H](NC(=O)[C@H](Cc1ccc(-c2ncc(-c3ccc(-c4ccc(F)cc4)cc3)cn2)cc1)NC(=O)c1ccc(C(C)(C)C)s1)C(=O)O [Compound 1305] | < 800
4 | C[C@@H](NC(=O)[C@H](Cc1ccc(-c2ncc(-c3ccc(C4CC4)cc3)cn2)cc1)NC(=O)c1ccc(C(C)(C)C)s1)C(=O)O [Compound 1306] | 800 to 2500
5 | CCCCCOc1ccc(-c2ccc(-c3cnc(-c4ccc(C[C@H](NC(=O)c5ccc(C(C)(C)C)s5)C(=O)N[C@H](C)C(=O)O)cc4)nc3)cc2)cc1 [Compound 1309] | 800 to 2500
6 | C[C@@H](NC(=O)[C@H](Cc1ccc(-c2ncc(-c3ccc(-c4ccc(C(F)(F)F)cc4)cc3)cn2)cc1)NC(=O)c1ccc(C(C)(C)C)s1)C(=O)O [Compound 1313] | < 800
7 | C[C@@H](NC(=O)[C@H](Cc1ccc(-c2ncc(-c3ccc(-c4ccc(OC(F)(F)F)cc4)cc3)cn2)cc1)NC(=O)c1ccc(C(C)(C)C)s1)C(=O)O [Compound 1314] | < 800
8 | C[C@@H](NC(=O)[C@H](Cc1ccc(-c2ncc(-c3ccc(-c4ccc(Cl)cc4)cc3)cn2)cc1)NC(=O)c1ccc(C(C)(C)C)s1)C(=O)O [Compound 1315] | < 800
9 | C[C@@H](NC(=O)[C@H](Cc1ccc(-c2ncc(-c3ccc(C4CCC(C)(C)CC4)cc3)cn2)cc1)NC(=O)c1ccc(C(C)(C)C)s1)C(=O)O [Compound 1316] | < 800
10 | C[C@@H](NC(=O)[C@H](Cc1ccc(-c2ncc(-c3ccc(-c4ccccc4)cc3F)cn2)cc1)NC(=O)c1ccc(C(C)(C)C)s1)C(=O)O [Compound 1318] | < 800
11 | C[C@@H](NC(=O)[C@H](Cc1ccc(-c2ncc(-c3ccc(-c4cccc(C(F)(F)F)c4)cc3)cn2)cc1)NC(=O)c1ccc(C(C)(C)C)s1)C(=O)O [Compound 1319] | 5000 to 10000
12 | CC[C@H]1CC[C@H](c2ccc(-c3cnc(-c4ccc(C[C@H](NC(=O)c5ccc(C(C)(C)C)s5)C(=O)N5C6CCC5C(C(=O)O)C6)cc4)nc3)cc2)CC1 (some centres unmarked) [Compound 1321] | 800 to 2500
13 | CC[C@H]1CC[C@H](c2ccc(-c3cnc(-c4ccc(C[C@H](NC(=O)c5ccc(C(C)(C)C)s5)C(=O)N[C@H](Cc5c[nH]cn5)C(=O)O)cc4)nc3)cc2)CC1 [Compound 1322] | < 800
14 | CC[C@H]1CC[C@H](c2ccc(-c3cnc(-c4ccc(C[C@H](NC(=O)c5ccc(C(C)(C)C)s5)C(=O)NCC(=O)O)cc4)nc3)cc2)CC1 [Compound 1323] | < 800
15 | CC[C@H]1CC[C@H](c2ccc(-c3cnc(-c4ccc(C[C@H](NC(=O)c5ccc(C(C)(C)C)s5)C(=O)NCCC(=O)O)cc4)nc3)cc2)CC1 [Compound 1324] | < 800
16 | CC[C@H]1CC[C@H](c2ccc(-c3cnc(-c4ccc(C[C@H](NC(=O)c5ccc(C(C)(C)C)s5)C(=O)N[C@H](C(=O)O)[C@@H](C)O)cc4)nc3)cc2)CC1 [Compound 1327] | < 800
17 | CC[C@H]1CC[C@H](c2ccc(-c3cnc(-c4ccc(C[C@H](NC(=O)c5ccc(C(C)(C)C)s5)C(=O)N[C@H](C(=O)O)C(C)C)cc4)nc3)cc2)CC1 [Compound 1328] | 800 to 2500
18 | CCOc1ccc(-c2ccc(-c3cnc(-c4ccc(C[C@H](NC(=O)c5ccc(C(C)(C)C)s5)C(=O)N5CC(C(=O)O)C5)cc4)nc3)c(F)c2)cc1 [Compound 1330] | < 800
19 | CCCOc1ccc(-c2ccc(-c3cnc(-c4ccc(C[C@H](NC(=O)c5ccc(C(C)(C)C)s5)C(=O)N5CC(C(=O)O)C5)cc4)nc3)c(F)c2)cc1 [Compound 1331] | < 800
20 | CC[C@H]1CC[C@H](c2ccc(-c3ccc(-c4ccc(C[C@H](NC(=O)c5ccc(C(C)(C)C)s5)C(=O)O)cc4)cn3)cc2)CC1 [Compound 1335] | 2500 to 5000
21 | CC[C@H]1CC[C@H](c2ccc(-c3cnc(-c4ccc(C[C@H](NC(=O)c5ccc(C(C)(C)C)s5)C(=O)O)cc4)nn3)cc2)CC1 [Compound 1336, (S)-2-(5-(tert-butyl)thiophene-2-carboxamido)-3-(4-(6-(4-((1r,4r)-4-ethylcyclohexyl)phenyl)-1,2,4-triazin-3-yl)phenyl)propanoic acid] | 2500 to 5000
22 | CC[C@H]1CC[C@H](c2ccc(-c3cnc(-c4ccc(C[C@H](NC(=O)c5ccc(C(C)(C)C#N)s5)C(=O)N5CC(C(=O)O)C5)cc4)nc3)cc2)CC1 [Compound 1339] | < 800
23 | CC[C@H]1CC[C@H](c2ccc(-c3ccc(-c4ccc(C[C@H](NC(=O)c5ccc(C(C)(C)C)s5)C(=O)N5CC(C(=O)O)C5)cc4)cn3)cc2)CC1 [Compound 1341] | < 800
24 | CCC[C@H]1CC[C@H](c2ccc(-c3cnc(-c4ccc(C[C@H](NC(=O)c5ccc(C(C)(C)C)s5)C(=O)N5CC(C(=O)O)C5)cc4)nc3)cc2)CC1 [Compound 1343, 1-((S)-2-(5-(tert-butyl)thiophene-2-carboxamido)-3-(4-(5-(4-((1s,4r)-4-propylcyclohexyl)phenyl)pyrimidin-2-yl)phenyl)propanoyl)azetidine-3-carboxylic acid] | < 800
25 | CC(C)(C)c1ccc(C(=O)N[C@@H](Cc2ccc(-c3ncc(-c4ccc(C5CCCCC5)cc4)cn3)cc2)C(=O)O)s1 [Compound 1345] | 800 to 2500
26 | CC(C)(C)c1ccc(C(=O)N[C@@H](Cc2ccc(-c3ncc(-c4ccc(-c5cccc(C(F)(F)F)c5)cc4)cn3)cc2)C(=O)O)s1 [Compound 1347] | < 800
27 | CC(C)(C)c1ccc(-c2ccc(-c3cnc(-c4ccc(C[C@H](NC(=O)c5ccc(C(C)(C)C)s5)C(=O)O)cc4)nc3)cc2)cc1 [Compound 1348] | 2500 to 5000

Further lines, results first:

Row | EC50 [nM] | Structure (SMILES)
28 | 5000 to 10000 | C[C@@H](NC(=O)[C@H](Cc1ccc(-c2ncc(-c3ccc(-c4ccccc4)nc3)cn2)cc1)NC(=O)c1ccc(C(C)(C)C)s1)C(=O)O [Compound 1303]
29 | 800 to 2500 | C[C@@H](NC(=O)[C@H](Cc1ccc(-c2ncc(-c3ccc(N4CCOCC4)cc3)cn2)cc1)NC(=O)c1ccc(C(C)(C)C)s1)C(=O)O [Compound 1307]
30 | 800 to 2500 | CCCCCc1ccc(-c2ccc(-c3cnc(-c4ccc(C[C@H](NC(=O)c5ccc(C(C)(C)C)s5)C(=O)N[C@H](C)C(=O)O)cc4)nc3)cc2)cc1 [Compound 1308]
31 | 2500 to 5000 | CCCCC[C@H]1CC[C@H](c2ccc(-c3cnc(-c4ccc(C[C@H](NC(=O)c5ccc(C(C)(C)C)s5)C(=O)N[C@H](C)C(=O)O)cc4)nc3)cc2)CC1 [Compound 1310]
32 | 2500 to 5000 | C[C@@H](NC(=O)[C@H](Cc1ccc(-c2ncc(-c3cnc(-c4ccccc4)nc3)cn2)cc1)NC(=O)c1ccc(C(C)(C)C)s1)C(=O)O [Compound 1311]
33 | 800 to 2500 | C[C@@H](NC(=O)[C@H](Cc1ccc(-c2ncc(-c3ccc(-c4ccc(C(C)(C)C)cc4)cc3)cn2)cc1)NC(=O)c1ccc(C(C)(C)C)s1)C(=O)O [Compound 1312]
34 | < 800 | CCCC[C@H]1CC[C@H](c2ccc(-c3cnc(-c4ccc(C[C@H](NC(=O)c5ccc(C(C)(C)C)s5)C(=O)N[C@H](C)C(=O)O)cc4)nc3)cc2)CC1 [Compound 1317]
35 | < 800 | CCCc1ccc(-c2ccc(-c3cnc(-c4ccc(C[C@H](NC(=O)c5ccc(C(C)(C)C)s5)C(=O)N[C@H](C)C(=O)O)cc4)nc3)c(F)c2)cc1 [Compound 1320]
36 | < 800 | CC[C@H]1CC[C@H](c2ccc(-c3cnc(-c4ccc(C[C@H](NC(=O)c5ccc(C(C)(C)C)s5)C(=O)N[C@@H](CC(N)=O)C(=O)O)cc4)nc3)cc2)CC1 [Compound 1325]
37 | < 800 | CC[C@H]1CC[C@H](c2ccc(-c3cnc(-c4ccc(C[C@H](NC(=O)c5ccc(C(C)(C)C)s5)C(=O)N[C@@H](CO)C(=O)O)cc4)nc3)cc2)CC1 [Compound 1326]
38 | < 800 | COc1ccc(-c2ccc(-c3cnc(-c4ccc(C[C@H](NC(=O)c5ccc(C(C)(C)C)s5)C(=O)N5CC(C(=O)O)C5)cc4)nc3)c(F)c2)cc1 [Compound 1329]
39 | < 800 | CCCCOc1ccc(-c2ccc(-c3cnc(-c4ccc(C[C@H](NC(=O)c5ccc(C(C)(C)C)s5)C(=O)N5CC(C(=O)O)C5)cc4)nc3)c(F)c2)cc1 [Compound 1332]
40 | 2500 to 5000 | CC[C@H]1CC[C@H](c2ccc(-c3ccc(-c4ccc(C[C@H](NC(=O)c5ccc(C(C)(C)C)s5)C(=O)O)cc4)nc3)cc2)CC1 [Compound 1333, (S)-2-(5-(tert-butyl)thiophene-2-carboxamido)-3-(4-(5-(4-((1r,4r)-4-ethylcyclohexyl)phenyl)pyridin-2-yl)phenyl)propanoic acid]
41 | < 800 | CC[C@H]1CC[C@H](c2ccc(-c3ccc(-c4ccc(C[C@H](NC(=O)c5ccc(C(C)(C)C)s5)C(=O)N5CC(C(=O)O)C5)cc4)nc3)cc2)CC1 [Compound 1334]
42 | < 800 | CC[C@H]1CC[C@H](c2ccc(-c3cnc(-c4ccc(C[C@H](NC(=O)c5ccc(C(C)(C)C)s5)C(=O)N5CC(C(=O)O)C5)cc4)nn3)cc2)CC1 [Compound 1337]
43 | 2500 to 5000 | Cc1ccc(S(=O)(=O)N2CC=C(c3cnc(-c4ccc(C[C@H](NC(=O)c5ccc(C(C)(C)C)s5)C(=O)N[C@H](C)C(=O)O)cc4)nc3)CC2)cc1 [Compound 1338]
44 | < 800 | CC[C@H]1CC[C@H](c2ccc(-c3cnc(-c4ccc(C[C@H](NC(=O)c5ccc(C6(C#N)CC6)s5)C(=O)N5CC(C(=O)O)C5)cc4)nc3)cc2)CC1 [Compound 1340]
45 | 800 to 2500 | CCc1ccc(C(=O)N[C@@H](Cc2ccc(-c3ncc(-c4ccc([C@H]5CC[C@H](CC)CC5)cc4)cn3)cc2)C(=O)N2CC(C(=O)O)C2)nc1 [Compound 1342]
46 | 800 to 2500 | CC1(C)CCC(c2ccc(-c3cnc(-c4ccc(C[C@H](NC(=O)c5ccc(C(C)(C)C)s5)C(=O)O)cc4)nc3)cc2)CC1 [Compound 1344]
47 | < 800 | CCC[C@H]1CC[C@H](c2ccc(-c3cnc(-c4ccc(C[C@H](NC(=O)c5ccc(C(C)(C)C)s5)C(=O)O)cc4)nc3)cc2)CC1 [Compound 1346]
